The subject of the experiment is Plasmodium falciparum. Briefly: GSK_TCMDC: Inhibition of Plasmodium falciparum 3D7 in whole erythrocytes, using parasite LDH activity as an index of growth. It is filed as functional, organism-based. The settings on record: Plasmodium falciparum, 3D7.
In the case of `CN(C)CCCOc1ccc(CN2CC[C@H](NC(=O)c3ccc(Cl)c(Cl)c3)C2)cc1Cl`, the XC50 was found to be 957 nM. Next, `Nc1c(Cl)cc(C(O)CNCCCCCOCCCc2ccc3ncccc3c2)cc1Cl` (stereo not given): 978 nM. For `COC(=O)Nc1nc2cc3c(cc2s1)OCCO3` the value was 841 nM. For `CCN(CC)C(=O)c1cccc(C=Cc2ccc(-c3c(C)[nH]c(C)c(Cl)c3=O)cc2)c1` the value was 259 nM. Compound `CC(C)c1ccc(NC(=O)c2ccc(C(=O)NCC3CCN(CC4CCCCC4)CC3)cc2)cc1` displayed an XC50 of 900 nM. Next, `COCCCNC(=O)[C@H]1CNCCN1C(=O)c1ccccc1`: 802 nM. The compound `CS(=O)(=O)c1ccccc1CNC(=O)c1ccc(-c2cccc(-c3nc4cc(C(F)(F)F)ccc4[nH]3)c2)cc1` gave an XC50 of 866 nM. Take `CCCC(=O)NC(NC(=S)Nc1ccc([N+](=O)[O-])cc1)C(Cl)(Cl)Cl` (stereo not given): the XC50 turned out to be 1030 nM. Next, `Clc1cc(Nc2ccnc3ccc(Br)cc23)ccc1Oc1ccc2ccccc2c1Cl`: 725 nM; `O=C(Nc1cccc(CN2CCN(C(=O)c3cccc(Cl)c3)CC2)c1)c1cccs1`: 184 nM.

`CC1CCCCC1N(C)C1CCN(CCCNC(=O)C=Cc2cccc(C(F)(F)F)c2)CC1` (stereo not given) registered an XC50 of 772 nM. Next, `CC1(C)C(=O)Nc2ccccc2N1C(=O)CN1CCN(c2ccccc2O)CC1`: 1070 nM; `CCN(CC)CCON=Cc1cc(C)c2[nH]c3ccc(OCc4ccccc4)cc3c2c1C`: 972 nM. As for `CN(C)CCOc1cc(NC(=O)Nc2ccc(-c3ccncc3)c(C(F)(F)F)c2)ccc1Cl`, the XC50 came to 991 nM. Next, `COc1ccc(C(F)(F)F)cc1N1CCN(CCCCNC(=O)c2ccc(NC(=O)c3ccc(Cl)cc3)cc2)CC1`: 909 nM.

The compound `Cn1c(N)c(N=O)c(=O)[nH]c1=O` yielded an XC50 of 176 nM.

Compound `CNC(=O)c1cnc(Nc2ccc(N3CCN(C)CC3)cc2)nc1Nc1cccc(OC(C)C)c1` returned an XC50 of 147 nM.

For the compound `Cc1[nH]c(C)c(-c2ccc(Nc3ccc(C(F)(F)F)cn3)cc2)c(=O)c1Br`, the XC50 was found to be 26 nM. Next, `OCC1CCN(Cc2cccc(-c3cccc(-c4nc5cc(C(F)(F)F)ccc5[nH]4)c3)c2)CC1`: 506 nM. Compound `CCCCCCc1cc(Oc2c(I)cc(C[C@H](N)C(=O)O)cc2I)ccc1O` displayed an XC50 of 906 nM. Compound `CC[C@@H]([C@@H](CC(C)C)C(=O)N[C@@H](CCCCNC(=O)OCc1ccccc1)C(=O)Nc1ccccn1)N(O)C=O` showed an XC50 of 108 nM. Next, `CCOC(=O)c1ccc(NC(=O)Nc2cccc(-c3ccc(-c4nc5cccc(C)c5[nH]4)s3)c2)cc1`: 144 nM. `COc1ccc(C(C)Nc2nc(N)c3cc(OC)c(OC)cc3n2)cc1` (stereo not given) yielded an XC50 of 936 nM. Regarding `COc1ccc(-c2csc(C(=O)NC3CCC(N4CCC(c5ccccc5C)CC4)CC3)c2)cc1` (stereo not given), the XC50 was 378 nM. For `O=C(/C=C/C=C/c1ccc(Cl)c(Cl)c1)NCCCCCN1CCCC2CCCCC21` (stereo not given) the value was 954 nM; for `Cc1cc(CNCCCCCCNCc2cccc([N+](=O)[O-])c2)ccc1O`, 723 nM. The compound `COc1ccc(-c2cc(-c3ccc(S(C)(=O)=O)cc3)cnc2N)cn1` returned an XC50 of 187 nM. Next, `NC1CCN(c2cnn(Cc3cccc(NC(=O)Nc4ccc(-c5ccccc5)cc4)c3)c(=O)c2Cl)CC1`: 1140 nM; `Cc1ccc(C(=O)Nc2ccnc(N(C)C3CCN(Cc4cccc(O)c4)CC3)c2)cn1`: 1880 nM; `N=C(N)NN=Cc1c2ccccc2c(Cl)c2cc(Cl)ccc12`: 791 nM. Turning to `CC(Cc1ccc(OCC(=O)NCC2CCN(CCc3cccc(Cl)c3)CC2)cc1)NCCc1cccc(Cl)c1` (stereo not given), the XC50 came to 663 nM. Next, `Cc1[nH]c(C)c(-c2ccc(-c3ccc(C(F)(F)F)cc3C(F)(F)F)nc2)c(=O)c1Br`: 187 nM; `Cc1cccc(CNc2nc(C)cc(N[C@@H](CC(C)C)C(=O)NCc3cccc(F)c3)n2)c1`: 1180 nM. `CCCCCCC(C)c1cc(O)c2c(c1)OC(C)(C)c1ccncc1-2` (stereo not given): the XC50 stood at 797 nM. As to `O=C(Nc1cccc2ccccc12)N1CCC(NS(=O)(=O)c2cccc(C(F)(F)F)c2)CC1`, the XC50 is 913 nM. Next, `Oc1cccc(-c2nc(-c3ccccc3)c(-c3ccc4oc5ccc(-c6[nH]c(-c7cccc(O)c7)nc6-c6ccccc6)cc5c4c3)[nH]2)c1`: 795 nM. Consider `CC(C)(C)NS(=O)(=O)c1cc(C(=O)N2CCC(CCN3CCC(O)(c4cccc(C(F)(F)F)c4)CC3)(c3cccc(F)c3)CC2)c(Cl)cc1F`, for which the XC50 was 858 nM. For `Cn1cnc(CCNC(=O)c2ccc(-c3ccc(-c4nc5cc(C(F)(F)F)ccc5[nH]4)s3)cc2)c1` the value was 402 nM; for `O=C(Nc1ccc(OC2CCN(Cc3ccsc3)CC2)c(Cl)c1)c1ccc(F)cc1`, 647 nM; for `CC(CNC(=O)C(c1cc2ccccc2o1)N1CCN(C(c2ccccc2)c2ccccc2)CC1)c1ccccc1` (stereo not given), 626 nM. For `CCN(CC)S(=O)(=O)c1ccc(CCOCCCCCNCC(O)c2cc(Cl)c(N)c(Cl)c2)s1` (stereo not given) the value was 858 nM; for `CN(C)C(=O)CCCn1c(CNCCCNc2cc(=O)c3ccccc3[nH]2)cc2c(Cl)cc(Cl)cc21`, 1190 nM; for `CC(C)CSc1cc(C(=O)Nc2cc(Cl)ccc2O)ccn1`, 670 nM. `Oc1c(Cl)cc(-c2ccccc2)cc1CNC1CCCCC1` returned an XC50 of 749 nM.

Compound `CCOc1cc(C)ccc1NC1CCN(CCCCNC(=O)c2ccc(NC(=O)c3ccc(Cl)cc3)cc2)CC1` yielded an XC50 of 714 nM.

The compound `COc1ccc(NC(=O)/C=C/c2ccc(-c3ccccc3)cc2)cc1N1CCN(C)CC1` registered an XC50 of 906 nM. For `CCCC(=O)Nc1ccc(OCCCN(Cc2ccccc2OC(F)(F)F)c2ccc(C#N)c(C(F)(F)F)c2)cc1` the value was 600 nM; for `Cc1cc(C)c2c(c1)C(=NO)CCN2`, 945 nM; for `COc1cc(F)c2ncc(Cl)c(C(O)CN3CCC(NC(=O)c4ccc5c(n4)NC(=O)CO5)CC3)c2c1` (stereo not given), 754 nM. Next, `O=c1cc(NCCCNCc2sc(Br)nc2Br)[nH]c2ccccc12`: 866 nM; `COc1ccc(F)cc1-c1ccc(C(=O)N2CCCN(c3ccc(C(F)(F)F)cn3)CC2)cc1`: 157 nM; `CCOC(=O)c1cnc2c(OC)cc(OC)c(Cl)c2c1Nc1cccc(C)c1`: 844 nM. For `CN(CCCc1c[nH]c2ccccc12)CCC1CCC(NC(=O)/C=C/c2ccc(Cl)c(Cl)c2)CC1` (stereo not given) the value was 650 nM.

With `Cc1c(CNCCCNc2cc(=O)c3ccccc3[nH]2)sc(C(F)=C(F)F)c1Br`, the XC50 stood at 836 nM. For `CCCCCCCc1cc(O)c2c(c1)OC(C)(C)c1ccncc1-2` the value was 1150 nM; for `CCCCCCN1CCC(NCc2cccc3ccccc23)CC1`, 811 nM. For `CO/C(=C\C=C\c1cc2cc(Cl)c(Cl)cc2[nH]1)C(=O)NCCCN1CCN(c2ccncc2)CC1` the value was 733 nM; for `CC(=O)Nc1ccc(CN2CCN(C(c3ccc(F)cc3)c3ccc(F)cc3)CC2)cc1`, 831 nM.

As to `CCOc1ccccc1CNc1nccc(NCc2ccccc2OC)n1`, the XC50 was found to be 1490 nM.

The compound `CN(c1ccc(NC(=O)Nc2cc(C(C)(C)C)on2)cc1)c1ccnc(NCCOC(=O)Nc2cc(C(C)(C)C)on2)n1` had an XC50 of 752 nM.

With `Cc1ccc(CON2C(N)=NC(N)=NC23CCCCC3)c2ccccc12`, the XC50 amounted to 72.6 nM. Next, `CN(CCC(CCN1CCC(c2c[nH]c3ccccc23)CC1)c1ccccc1)C(=O)Nc1ccc(Cl)c(Cl)c1` (stereo not given): 1190 nM; `O=C(Nc1ccc(OC2CCN(Cc3ccc(F)cc3)CC2)cc1)c1cccs1`: 969 nM. For `Cc1nc(C(=O)N2CCCC[C@H]2CNC(=O)c2ccc(-c3ccc(N4CCCC4=O)cc3C)cc2)c(-c2ccc(F)cc2)s1` the value was 459 nM; for `N#Cc1ccc(N2CCN(Cc3ccc(-c4cccc(-c5nc6ccccc6[nH]5)c4)cc3)CC2)nc1`, 908 nM; for `CC(CN(C)C)C(=O)Nc1cccc(-c2cccc(-c3nc4cc(F)ccc4[nH]3)c2)c1` (stereo not given), 826 nM. Next, `Cc1cccc(S(=O)(=O)Nc2cccc(CCN3CCC(N4CCCCC4)CC3)c2)c1`: 1330 nM; `CCCC[C@@H](C(=O)NCCc1ccc(Cl)cc1)N1C(=O)CCC1C(=O)Nc1ccc(Cl)c(Cl)c1` (stereo not given in full): 873 nM.

As for `NC(=O)c1ccc(NCC(=O)Nc2cccc(-c3cccc(-c4nc5ccccc5[nH]4)c3)c2)cc1`, the XC50 is 987 nM.

In the case of `C[C@H](NC(=O)c1c(CN2CCC(NC(=O)CC(C)(C)C)CC2)c(-c2cccs2)nc2ccccc12)C1CCCCC1`, the XC50 came to 947 nM.

With `O=C(Nc1ccc(F)c(C(F)(F)F)c1)NC1CCN(CCCCCNC(=O)C2CC2c2ccc(Cl)c(Cl)c2)CC1` (stereo not given), the XC50 is 663 nM. Next, `CCc1ccc(NC(=O)c2ccc(CN3CCCN(CC4CCCCC4)CC3)cc2)cc1`: 711 nM; `Ic1cc(Nc2ncnc3ccsc23)ccc1OCc1ccccc1`: 773 nM; `Cc1cccc2nc(-c3ccc(-c4ccc(CNCc5ccc(CN)cc5)cc4)s3)[nH]c12`: 442 nM. Next, `CC(=O)Nc1ccc(CCNC(C)Cc2ccc(C(=O)Nc3ccc(CC(C)NCCc4cccc(Cl)c4)cc3)cc2)cc1` (stereo not given): 330 nM; `Cc1nnc2c(NC(=O)NC3CCCC3)cc3cc(-c4ccc(CN(C)C)cc4)ccc3n12`: 1470 nM. The compound `CN(Cc1ccccc1)C1CCN(c2cc(NC(=O)c3cccc(F)c3)ccn2)CC1` registered an XC50 of 1510 nM. `S=c1nc(-c2ccccc2)n2ccsc2n1` showed an XC50 of 176 nM. `Nc1ncc(-c2ccc(S(=O)(=O)Nc3ccc(C(=O)N[C@@H](CCC(=O)O)C(=O)O)cc3)cc2)c(=O)[nH]1` returned an XC50 of 803 nM.

`Cc1cc(=NN=Cc2cccc(Cl)c2)c2ccccc2[nH]1` yielded an XC50 of 255 nM. For `CCCCCN1CCN(Cc2cccc(NC(=O)c3ccc(Cl)c(Cl)c3)c2)CC1` the value was 857 nM; for `Cc1cccc2nc(-c3ccc(-c4cccc(CNCCCNS(C)(=O)=O)c4)s3)[nH]c12`, 1020 nM; for `CS(=O)(=O)Nc1ccc2c(C3CCN(CCC4CCN(C(=O)/C=C/c5ccc(Cl)c(Cl)c5)CC4)CC3)c[nH]c2c1`, 599 nM. For `CO/C(=C\C=C\c1cc2cc(Cl)c(Cl)cc2[nH]1)C(=O)NCCCN1CCN(c2ccc(OC)cc2)CC1` the value was 700 nM.

Turning to `N#CCCN1CCN(Cc2cccc(-c3ccc(-c4nc5ccccc5[nH]4)s3)c2)CC1`, the XC50 stood at 759 nM.

The values are drawn from ChEMBL document CHEMBL1157539, “Thousands of chemical starting points for antimalarial lead identification” (Nature, 2010).
